Experimental data: patent US10322180B2, “Pharmaceutical composition comprising modified hemoglobin-based therapeutic agent for cancer targeting treatment and diagnostic imaging” (Vision Global Holdings Ltd., priority 2013, dated 2019)

Tested on: Liver cancer cells, HepG2
Test: Live cell imaging uptake, liver cancer cells
Type: cell-based, human
Details: FIG. 23A-23C
Description: Cancer cells (e.g. HepG2 liver cancer cells) are seeded onto glass bottom microwell dishes (MatTek Corporation). Live cells at defined zooms (63×, 20×) are acquired using Zeiss Observer Z1 widefield microscope, equipped with atmospheric/temperature-controlled chamber and motorized stage for multi-positional acquisition. The incubation is performed in an enclosed live cell imaging system purged with 0.1% 02 and 5% CO2 (premixed). Cells are exposed to (1) Hb-5FU-alkyl(non-cleavable)-FL conjugate, labeled with one fluorescent dye and (2) Hb-5Fu-Dan-TAM conjugate, labeled with two fluorescent dyes; for 15 min prior to the acquisition of images every 3 min for a period of 2 h. Images are deconvolved and compacted into time-lapse movies using the MetaMorph software (Molecular Device).

For “fluorescent labeled hemoglobin: hemoglobin linked to one or more molecules of fluorescein (fluorescein 6-carboxysuccinimidyl ester, F-6-NHS)”, the “entry into liver cancer cells (fluorescent signal under microscope)” value was “can also enter into the cancer cells” and the “entry into liver cancer cells (fluorescent signal under microscope)” value (listed as fluorescent labeled modified hemoglobin) was “can enter into liver cancer cells successfully”.
